Data taken from ChEMBL document CHEMBL1817579, “Activation and inhibition of CTP synthase from Trypanosoma brucei, the causative agent of African sleeping sickness” (Bioorg Med Chem Lett, 2011).
One block for each compound: values may come before it. Activity calls are given as the source filed them. The calls are words filed in the database; no cut-off is given here.

Columns and labels:
[1] = test system: Escherichia coli; test: Activation of Escherichia coli CTPS assessed as Gln-dependent CTP formation at < 0.15 mM by continuous spectrophotometric assay
[2] = test system: Escherichia coli; test: Inhibition of Escherichia coli CTPS assessed as Gln-dependent CTP formation at > 0.15 mM by continuous spectrophotometric assay
[3] = test system: Trypanosoma brucei; test: Activation of N-terminal His6-tagged Trypanosoma brucei CTPS assessed as Gln-dependent CTP formation by continuous spectrophotometric assay
[4] = test system: Trypanosoma brucei; test: Inhibition of N-terminal His6-tagged Trypanosoma brucei CTPS assessed as Gln-dependent CTP formation at by continuous spectrophotometric assay
[5] = Inhibition of N-terminal His6-tagged Trypanosoma brucei CTPS assessed as NH3-dependent CTP formation by continuous spectrophotometric assay
[6] = test system: Trypanosoma brucei; test: Activation of N-terminal His6-tagged Trypanosoma brucei CTPS assessed as Gln-dependent CTP formation at <0.2 mM by continuous spectrophotometric assay
[7] = test system: Trypanosoma brucei; test: Inhibition of N-terminal His6-tagged Trypanosoma brucei CTPS assessed as Gln-dependent CTP formation at > 0.2 mM by continuous spectrophotometric assay
[8] = Activity of Escherichia coli CTPS assessed as conversion of UTP to CTP at pH 7.3 by continuous spectrophotometric assay
[9] = Activity of N-terminal His6-tagged Trypanosoma brucei CTPS assessed as conversion of UTP to CTP at pH 7.3 by continuous spectrophotometric assay
[10] = test system: Trypanosoma brucei; conditions: 5.67 mM
Description: Inhibition of N-terminal His6-tagged Trypanosoma brucei CTPS assessed as conversion of UTP to CTP at 5.67 mM by continuous spectrophotometric assay

[11] = test system: Trypanosoma brucei; conditions: 494.32 mM
Description: Inhibition of N-terminal His6-tagged Trypanosoma brucei CTPS assessed as conversion of UTP to CTP at 494.32 mM at pH 7.3 by continuous spectrophotometric assay

[12] = test system: Escherichia coli
[13] = test system: Trypanosoma brucei
Description: Ratio of Kcat to Km for N-terminal His6-tagged Trypanosoma brucei CTPS assessed as conversion of UTP to CTP by continuous spectrophotometric assay

[14] = test system: Escherichia coli; remark: listed apart in the source
Description: Ratio of Kcat to Km for Escherichia coli CTPS assessed as conversion of UTP to CTP by continuous spectrophotometric assay

[15] = test system: Trypanosoma brucei; remark: listed apart in the source

- kcat [1]: 10.6 s⁻¹
- inhibition [2]: Active
- KA [3]: 57 µM
- Kact [3]: 0.87 s⁻¹
- inhibition [4]: Active
- Ki [5]: 272 µM
- Activity [6]: Active
- inhibition [7]: Active
SMILES: Nc1nc(=O)c2ncn([C@@H]3O[C@H](COP(=O)(O)OP(=O)(O)OP(=O)(O)O)[C@@H](O)C3O)c2[nH]1 (single isomer, unassigned) [GTP]
- IC50 [5]: 460 µM

- Ki [8]: 1400 µM
- Ki [9]: 5700 µM
- inhibition [10]: Active
- inhibition [11]: Active
- Ks [12]: 1.1 mM
- kcat [12]: 4.4 s⁻¹
- kcat/Km [13]: 727 M⁻¹ s⁻¹
- kcat/Km [14]: 4 ×10³ /M/s
- Ks [15]: 2.2 mM
- kcat [15]: 1.6 s⁻¹
SMILES: N [AMMONIA SOLUTION, STRONG]

SMILES: Cn1c(=O)c2c(ncn2C)n(C)c1=O [CAFFEINE]
- IC50 [5]: 480 µM

SMILES: Nc1nc2c(ncn2[C@@H]2O[C@H](CO)[C@@H](O)[C@H]2O)c(=O)[nH]1 [GUANOSINE]
- IC50 [5]: 380 µM

SMILES: Oc1nc(O)c2nc(O)[nH]c2n1 [URIC ACID]
- IC50 [5]: 100 µM
